Values after ≈ are worked out from the molar mass of the structure shown. Counter-ions that a name gives are not always drawn. Like-named read-outs stand apart in the source and are kept apart here.
How the values were obtained:
Assay type in all cases: cell-based
[1] = test system: E. coli 257; assay: In vitro antibacterial activity (MIC, Mueller-Hinton broth)
Procedure, shortened: (§1)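 Inoculated with 1.5 μl per well of a 10^-2 overnight-culture dilution, Mueller-Hinton broth dilutions (128–0.008 μg/ml) are incubated overnight at 37° C. No-growth endpoint defines MIC.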

[2] = test system: C. diversus CDC 1663-72; assay: In vitro antibacterial activity (MIC); conditions: Citrobacter koseri, CDC166372
Procedure, shortened: as §1

[3] = test system: C. freundii 8ASM; assay: In vitro antibacterial activity (MIC); conditions: Citrobacter freundii, 8ASM, C. freundii 8ASM; read-out: MIC
Procedure, shortened: as §1

[4] = test system: C. freundii CDC6; assay: In vitro antibacterial activity (MIC); conditions: Citrobacter freundii
Procedure, shortened: as §1

[5] = test system: E. aerogenes 503-478; assay: In vitro antibacterial activity (MIC); conditions: Klebsiella aerogenes, 503478, E. aerogenes 503-478; read-out: MIC
Procedure, shortened: as §1

[6] = test system: E. aerogenes 83; assay: In vitro antibacterial activity (MIC); conditions: Klebsiella aerogenes, 83, E. aerogenes 83; read-out: MIC
Procedure, shortened: as §1

[7] = test system: E. cloacae 214; assay: In vitro antibacterial activity (MIC)
Procedure, shortened: as §1

[8] = test system: E. cloacae 24; assay: In vitro antibacterial activity (MIC); conditions: Enterobacter cloacae, 24, E. cloacae 24; read-out: MIC
Procedure, shortened: as §1

[9] = test system: E. cloacae 5699; assay: In vitro antibacterial activity (MIC); conditions: Enterobacter cloacae, 5699, E. cloacae 5699; read-out: MIC
Procedure, shortened: as §1

[10] = test system: E. cloacae 9295; assay: In vitro antibacterial activity (MIC); conditions: Enterobacter cloacae, 9295, E. cloacae 9295; read-out: MIC
Procedure, shortened: as §1

[11] = test system: E. cloacae 9570A; assay: In vitro antibacterial activity (MIC); conditions: Enterobacter cloacae, read-out: MIC
Procedure, shortened: as §1

[12] = test system: E. coli 387-1; assay: In vitro antibacterial activity (MIC)
Procedure, shortened: as §1

[13] = test system: E. coli 48; assay: In vitro antibacterial activity (MIC); conditions: Escherichia coli, 48, E. coli 48; read-out: MIC
Procedure, shortened: as §1

[14] = test system: E. coli 4; assay: In vitro antibacterial activity (MIC); conditions: Escherichia coli, 4, E. coli 4; read-out: MIC
Procedure, shortened: as §1

[15] = test system: E. coli 5152; assay: In vitro antibacterial activity (MIC); conditions: Escherichia coli, 5152, E. coli 5152; read-out: MIC
Procedure, shortened: as §1

[16] = test system: K. pneumoniae 35; assay: In vitro antibacterial activity (MIC); conditions: Klebsiella pneumoniae; K. pneumoniae 35; read-out: MIC
Procedure, shortened: as §1

[17] = test system: K. pneumoniae 4964; assay: In vitro antibacterial activity (MIC); conditions: Klebsiella pneumoniae, 4964, K. pneumoniae 4964; read-out: MIC
Procedure, shortened: as §1

[18] = test system: K. pneumoniae 503-994; assay: In vitro antibacterial activity (MIC); conditions: Klebsiella pneumoniae, 503994, K. pneumoniae 503-994; read-out: MIC
Procedure, shortened: as §1

[19] = test system: K. pneumoniae 5096; assay: In vitro antibacterial activity (MIC); conditions: Klebsiella pneumoniae; K. pneumoniae 5096; read-out: MIC
Procedure, shortened: as §1

[20] = test system: K. pneumoniae HE7; assay: In vitro antibacterial activity (MIC); conditions: Klebsiella pneumoniae; K. pneumoniae HE7; read-out: MIC
Procedure, shortened: as §1

[21] = test system: P. aeruginosa 503-56; assay: In vitro antibacterial activity (MIC); conditions: Pseudomonas aeruginosa, 50356, P. aeruginosa 503-56; read-out: MIC
Procedure, shortened: as §1

[22] = test system: P. aeruginosa 5712; assay: In vitro antibacterial activity (MIC); conditions: Pseudomonas aeruginosa; P. aeruginosa 5712; read-out: MIC
Procedure, shortened: as §1

[23] = test system: P. aeruginosa 6148B; assay: In vitro antibacterial activity (MIC); conditions: Pseudomonas aeruginosa, read-out: MIC
Procedure, shortened: as §1

[24] = test system: P. aeruginosa 8710; assay: In vitro antibacterial activity (MIC); conditions: Pseudomonas aeruginosa; P. aeruginosa 8710; read-out: MIC
Procedure, shortened: as §1

[25] = test system: P. aeruginosa B; assay: In vitro antibacterial activity (MIC); conditions: Pseudomonas aeruginosa, read-out: MIC
Procedure, shortened: as §1

[26] = test system: P. aeruginosa POW 151; assay: In vitro antibacterial activity (MIC); conditions: Pseudomonas aeruginosa, POW151
Procedure, shortened: as §1

[27] = test system: P. mirabilis 2; assay: In vitro antibacterial activity (MIC); conditions: Proteus mirabilis, 2, P. mirabilis 2; read-out: MIC
Procedure, shortened: as §1

[28] = test system: P. mirabilis 503-1136; assay: In vitro antibacterial activity (MIC); conditions: Proteus mirabilis, 5031136, P. mirabilis 503-1136; read-out: MIC
Procedure, shortened: as §1

[29] = test system: P. vulgaris 101; assay: In vitro antibacterial activity (MIC); conditions: Proteus vulgaris, 101, P. vulgaris 101; read-out: MIC
Procedure, shortened: as §1

[30] = test system: P. vulgaris ATCC 6380; assay: In vitro antibacterial activity (MIC); conditions: Proteus vulgaris
Procedure, shortened: as §1

[31] = test system: S. aureus Giorgio; assay: In vitro antibacterial activity (MIC); conditions: Staphylococcus aureus, S. aureus Giorgio; read-out: MIC
Procedure, shortened: as §1

[32] = test system: S. aureus Smith; assay: In vitro antibacterial activity (MIC); conditions: Staphylococcus aureus, S. aureus Smith; read-out: MIC
Procedure, shortened: as §1

[33] = test system: S. marcescens 5805; assay: In vitro antibacterial activity (MIC); conditions: Serratia marcescens, 5805, S. marcescens 5805; read-out: MIC
Procedure, shortened: as §1

[34] = test system: S. marcescens S147; assay: In vitro antibacterial activity (MIC); conditions: Serratia marcescens; S. marcescens S147; read-out: MIC
Procedure, shortened: as §1

[35] = test system: S. marcescens S1; assay: In vitro antibacterial activity (MIC); conditions: Serratia marcescens, S1, S. marcescens S1; read-out: MIC
Procedure, shortened: as §1

[36] = test system: S. marcescens S3; assay: In vitro antibacterial activity (MIC); conditions: Serratia marcescens; S. marcescens S3; read-out: MIC
Procedure, shortened: as §1

[37] = test system: S. marcescens S4; assay: In vitro antibacterial activity (MIC); conditions: Serratia marcescens, S4, S. marcescens S4; read-out: MIC
Procedure, shortened: as §1

[38] = test system: S. marcescens S714; assay: In vitro antibacterial activity (MIC); conditions: Serratia marcescens, S714, S. marcescens S714; read-out: MIC
Procedure, shortened: as §1

[39] = test system: S. pneumoniae 6301; assay: In vitro antibacterial activity (MIC); conditions: Streptococcus pneumoniae, 6301, S. pneumoniae 6301; read-out: MIC
Procedure, shortened: as §1

[40] = test system: S. pneumoniae 6302; assay: In vitro antibacterial activity (MIC); conditions: Streptococcus pneumoniae, 6302, S. pneumoniae 6302; read-out: MIC
Procedure, shortened: as §1

[41] = test system: S. pneumoniae SC; assay: In vitro antibacterial activity (MIC); conditions: Streptococcus pneumoniae, read-out: MIC
Procedure, shortened: as §1

[42] = test system: S. pyogenes 4; assay: In vitro antibacterial activity (MIC); conditions: Streptococcus pyogenes, 4, S. pyogenes 4; read-out: MIC
Procedure, shortened: as §1

[43] = test system: S. pyogenes 503-782; assay: In vitro antibacterial activity (MIC); conditions: Streptococcus pyogenes, 503782; S. pyogenes 503-782; read-out: MIC
Procedure, shortened: as §1

[44] = test system: S. schottmuelleri; assay: In vitro antibacterial activity (MIC); conditions: read-out: MIC
Procedure, shortened: as §1

[45] = test system: S. typhi P58A; assay: In vitro antibacterial activity (MIC); conditions: Salmonella enterica, TYPHI
Procedure, shortened: as §1

Structure (SMILES): CC1(C)S[C@@H]2[C@H](N=CN3CCC(CCCn4ccnc4)CC3)C(=O)N2[C@H]1C(=O)O [C, [2S-(2alpha,5alpha,6beta)]-6-[[4-[3-(1H-imidazol-1-yl)propyl]-1-piperidinyl]methylene]amino]-3,3-dimethyl-7-oxo-4-thia-1-azabicyclo[3.2.0]heptane-2-carboxylic acid 1.2 mole hydrochloride monohydrate]
- MIC ([1]; Escherichia coli, 257, E. coli 257, read-out: MIC): 2 mg/L
- MIC ([2]; C. diversus CDC 1663-72, read-out: MIC): 4 mg/L
- MIC [3]: 4 mg/L
- MIC ([4]; CDC6, C. freundii CDC6, read-out: MIC): 16 mg/L
- MIC [5]: 128 mg/L
- MIC [6]: > 128 mg/L
- MIC ([7]; Enterobacter cloacae, 214, E. cloacae 214, read-out: MIC): 16 mg/L
- MIC [8]: 32 mg/L
- MIC [9]: 16 mg/L
- MIC [10]: 16 mg/L
- MIC [11]: 16 mg/L
- MIC ([12]; Escherichia coli, 3871, E. coli 387-1, read-out: MIC): 8 mg/L
- MIC [13]: 2 mg/L
- MIC [14]: 8 mg/L
- MIC [15]: > 128 mg/L
- MIC [16]: 8 mg/L
- MIC [17]: > 128 mg/L
- MIC [18]: 32 mg/L
- MIC [19]: > 128 mg/L
- MIC [20]: > 128 mg/L
- MIC [21]: > 128 mg/L
- MIC [22]: > 128 mg/L
- MIC [23]: > 128 mg/L
- MIC [24]: > 128 mg/L
- MIC [25]: 8 mg/L
- MIC [26]: > 128 mg/L
- MIC [27]: 16 mg/L
- MIC [28]: 128 mg/L
- MIC [29]: 128 mg/L
- MIC ([30]; ATCC6380, P. vulgaris ATCC 6380, read-out: MIC): 4 mg/L
- MIC [31]: > 128 mg/L
- MIC [32]: > 128 mg/L
- MIC [33]: 32 mg/L
- MIC [34]: 16 mg/L
- MIC [35]: 128 mg/L
- MIC [36]: 16 mg/L
- MIC [37]: 32 mg/L
- MIC [38]: 32 mg/L
- MIC [39]: 128 mg/L
- MIC [40]: 128 mg/L
- MIC [41]: 64 mg/L
- MIC [42]: 64 mg/L
- MIC [43]: > 128 mg/L
- MIC [44]: 4 mg/L
- MIC [45]: 8 mg/L

Structure (SMILES): CC1(C)S[C@@H]2[C@H](N=CN3CCC(Cn4ccnc4)CC3)C(=O)N2[C@H]1C(=O)O [Compound A]
- MIC ([1]; Escherichia coli, 257): 0.125 mg/L (≈ 0.319 µM)
- MIC [2]: 0.125 mg/L (≈ 0.319 µM)
- MIC [3]: 0.062 mg/L (≈ 0.158 µM)
- MIC ([4]; CDC6): 0.125 mg/L (≈ 0.319 µM)
- MIC [5]: 0.062 mg/L (≈ 0.158 µM)
- MIC [6]: 2 mg/L (≈ 5.11 µM)
- MIC ([7]; Enterobacter cloacae, 214): 0.125 mg/L (≈ 0.319 µM)
- MIC [8]: 0.5 mg/L (≈ 1.28 µM)
- MIC [9]: 0.5 mg/L (≈ 1.28 µM)
- MIC [10]: 0.5 mg/L (≈ 1.28 µM)
- MIC [11]: 0.5 mg/L (≈ 1.28 µM)
- MIC ([12]; Escherichia coli, 3871): 0.125 mg/L (≈ 0.319 µM)
- MIC [13]: 0.062 mg/L (≈ 0.158 µM)
- MIC [14]: 0.062 mg/L (≈ 0.158 µM)
- MIC [15]: 16 mg/L (≈ 40.9 µM)
- MIC [16]: 0.25 mg/L (≈ 0.639 µM)
- MIC [17]: 2 mg/L (≈ 5.11 µM)
- MIC [18]: 0.25 mg/L (≈ 0.639 µM)
- MIC [19]: 64 mg/L (≈ 163 µM)
- MIC [20]: > 128 mg/L
- MIC [21]: > 128 mg/L
- MIC [22]: > 128 mg/L
- MIC [23]: > 128 mg/L
- MIC [24]: > 128 mg/L
- MIC [25]: 0.25 mg/L (≈ 0.639 µM)
- MIC [26]: > 128 mg/L
- MIC [27]: 0.5 mg/L (≈ 1.28 µM)
- MIC [28]: 8 mg/L (≈ 20.4 µM)
- MIC [29]: 16 mg/L (≈ 40.9 µM)
- MIC ([30]; ATCC6380): 0.125 mg/L (≈ 0.319 µM)
- MIC [31]: 8 mg/L (≈ 20.4 µM)
- MIC [32]: 8 mg/L (≈ 20.4 µM)
- MIC [33]: 1 mg/L (≈ 2.55 µM)
- MIC [34]: 0.25 mg/L (≈ 0.639 µM)
- MIC [35]: 0.25 mg/L (≈ 0.639 µM)
- MIC [36]: 0.25 mg/L (≈ 0.639 µM)
- MIC [37]: 1 mg/L (≈ 2.55 µM)
- MIC [38]: 1 mg/L (≈ 2.55 µM)
- MIC [39]: 1 mg/L (≈ 2.55 µM)
- MIC [40]: 2 mg/L (≈ 5.11 µM)
- MIC [41]: 2 mg/L (≈ 5.11 µM)
- MIC [42]: 1 mg/L (≈ 2.55 µM)
- MIC [43]: 128 mg/L (≈ 327 µM)
- MIC [44]: 0.125 mg/L (≈ 0.319 µM)
- MIC [45]: 0.25 mg/L (≈ 0.639 µM)
